Results: article PMC6271590, “Phenoxyacetohydrazide Schiff Bases: β-Glucuronidase Inhibitors” (Molecules, 2014)
Values joined by “and” are separate entries in the source; they are usually repeats but may differ in a detail not shown here. Equal entries are not always repeated.

Target: T1, β-Glucuronidase (E.C. 3.2.1.31 from bovine liver) (Bos taurus, UniProt A3KMY8)
T1 construct: β-Glucuronidase (E.C. 3.2.1.31 from bovine liver, G-0251); purchased Sigma Chemical Co. (St. Louis, MO, USA) G-0251; host or cells: bovine liver (tissue-derived preparation)
T1 sequence (A3KMY8 1-652): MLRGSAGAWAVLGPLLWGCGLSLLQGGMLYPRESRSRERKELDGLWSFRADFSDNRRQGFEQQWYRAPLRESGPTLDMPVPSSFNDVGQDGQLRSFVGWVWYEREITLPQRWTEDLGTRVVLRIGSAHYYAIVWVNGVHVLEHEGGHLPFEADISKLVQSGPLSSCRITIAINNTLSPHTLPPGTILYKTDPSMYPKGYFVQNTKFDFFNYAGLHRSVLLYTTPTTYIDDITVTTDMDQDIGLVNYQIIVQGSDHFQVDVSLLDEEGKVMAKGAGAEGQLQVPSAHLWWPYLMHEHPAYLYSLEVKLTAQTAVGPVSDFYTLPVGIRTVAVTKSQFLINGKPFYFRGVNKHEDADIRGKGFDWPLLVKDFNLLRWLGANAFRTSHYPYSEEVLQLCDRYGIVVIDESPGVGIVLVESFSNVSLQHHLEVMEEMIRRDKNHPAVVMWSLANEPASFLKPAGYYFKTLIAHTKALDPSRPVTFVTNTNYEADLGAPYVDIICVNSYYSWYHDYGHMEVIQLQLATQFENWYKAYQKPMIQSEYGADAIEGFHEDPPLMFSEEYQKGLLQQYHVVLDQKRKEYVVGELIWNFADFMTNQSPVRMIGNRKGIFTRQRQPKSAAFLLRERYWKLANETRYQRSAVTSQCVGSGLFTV
Experiment: In vitro β-glucuronidase inhibition assay (p-nitrophenyl-β-D-glucuronide, absorbance at 405 nm)
Format: biochemical
Settings: for β-glucuronidase inhibitory activity in words: qualitative statement; for IC50: bovine liver enzyme, substrate p-nitrophenyl-β-D-glucuronide, 37 °C, 30 min, triplicate, ± SEM, NA = Not active
Procedure: Synthetic acyl hydrazides Schiff bases 1–28 were screened for their in vitro potential as β-glucoronidase inhibitors. The in vitro β-glucornidase inhibitory potential was evaluated by using the literature protocol.
β-Glucuronidase (E.C. 3.2.1.31 from bovine liver, G-0251) and p-nitrophenyl-β-D-glucuronide (N-1627) were purchased From Sigma Chemical Co. (St. Louis, MO, USA). Anhydrous Na2CO3 and all other reagents of standard grade were obtained from E. Merck. The anhydrous EtOH and CHCl3 used in the experiments were dried employing the standard methods. All other solvents and reagents like the benzoyl chloride were of standard grade.
β-D-Glucuronidase inhibition was determined by measuring the absorbance of the p-nitrophenol which is produce from the substrate at 405 nm. The total reaction volume was 250 µL. The reaction mixture contains 5 µL of test compound solution, 185 µL of 0.1 M acetate buffer, and 10 µL of enzyme, and it was incubated at 37 °C for 30 min. The plates were read on a multiplate reader at 405 nm after the addition of 50 µL of 0.4 mM p-nitrophenyl-β-D-glucuronide. All assays were performed in triplicate.

Row | Structure (SMILES) | β-glucuronidase inhibitory activity in words | IC50 | activity relative to the standard D-saccharic acid-1,4-lactone (fold better than standard by IC50)
1 | COc1ccc(C=CC=NNC(=O)COc2ccc(Cl)cc2C)cc1 [Compound 2] | inactive |  | 
2 | Cc1cc(Cl)ccc1OCC(=O)NN=Cc1ccc(O)c(O)c1 [Compound 16, 2-(4-Chloro-2-methylphenoxy)-N'-[-(3,4-dihydroxyphenyl)methylidene]acetohydrazide] | completely inactive |  | 
3 | Cc1cc(Cl)ccc1OCC(=O)NN=Cc1cccc2ccccc12 [Compound 21, 2-(4-Chloro-2-methylphenoxy)-N'-[-1-naphthylmethylidene]acetohydrazide] | excellent activity | 13.7 ± 0.4 µM | 
4 | Cc1ccc(C=NNC(=O)COc2ccc(Cl)cc2C)o1 [Compound 14, 2-(4-Chloro-2-methylphenoxy)-N'-[-(5-methyl-2-furyl)methylidene]acetohydrazide] | completely inactive |  | 
5 | Cc1cc(Cl)ccc1OCC(=O)NN=Cc1cccc([N+](=O)[O-])c1 [Compound 6, 2-(4-Chloro-2-methylphenoxy)-N'-[(3-nitrophenyl)methylidene]acetohydrazide] | inactivity |  | 
6 | Cc1cc(Cl)ccc1OCC(=O)NN=Cc1ccc(Cl)c(Cl)c1 [Compound 9, 2-(4-Chloro-2-methylphenoxy)-N'-[(3,4-dichlorophenyl)methylidene]acetohydrazide] | completely inactive |  | 
7 | Cc1cc(Cl)ccc1OCC(=O)NN=Cc1ccco1 [Compound 13, 2-(4-Chloro-2-methylphenoxy)-N'-[-2-furylmethylidene]acetohydrazide] | completely inactive |  | 
8 | Cc1cc(Cl)ccc1OCC(=O)NN=Cc1ccccc1[N+](=O)[O-] [Compound 5, 2-(4-Chloro-2-methylphenoxy)-N'-[(2-nitrophenyl)methylidene]acetohydrazide] | excellent activity | 9.47 ± 0.16 µM | 
9 | CC(=NNC(=O)COc1ccc(Cl)cc1C)c1ccc(O)cc1 [Compound 17, 2-(4-Chloro-2-methylphenoxy)-N'-[1-(4-hydroxyphenyl)ethylidene]acetohydrazide] | completely inactive |  | 
10 | COc1ccccc1C=CC=NNC(=O)COc1ccc(Cl)cc1C [Compound 1] | excellent activity | 9.2 ± 0.32 µM | fivefold better than the standard
11 | Cc1cc(Cl)ccc1OCC(=O)NN=Cc1cccc(O)c1O [Compound 15, 2-(4-Chloro-2-methylphenoxy)-N'-[-(2,3-dihydroxyphenyl)methylidene]acetohydrazide] | excellent activity | 12 ± 0.16 µM | 
12 | Cc1cc(Cl)ccc1OCC(=O)NN=Cc1ccccc1F [Compound 11, 2-(4-Chloro-2-methylphenoxy)-N'-[-(2-fluorophenyl)methylidene]acetohydrazide] | excellent activity | 19 µM and 19.6 µM | 
13 | Cc1cc(Cl)ccc1OCC(=O)NN=Cc1c(Cl)cccc1Cl [Compound 10, 2-(4-Chloro-2-methylphenoxy)-N'-[(2,6-dichlorophenyl)methylidene]acetohydrazide] | completely inactive |  | 
14 | Cc1cc(Cl)ccc1OCC(=O)NN=Cc1ccc(Cl)cc1 [Compound 7, 2-(4-Chloro-2-methylphenoxy)-N'-[-(4-chlorophenyl)methylidene]acetohydrazide] | excellent activity | 14.7 ± 0.19 µM | 
15 | Cc1cc(Cl)ccc1OCC(=O)NN=Cc1ccsc1 [Compound 12, 2-(4-Chloro-2-methylphenoxy)-N'-[3-thienylmethylidene]acetohydrazide] | excellent activity | 30.7 ± 1.49 µM | 
16 | CC(=NNC(=O)COc1ccc(Cl)cc1C)c1c(O)cc(O)cc1O [Compound 19, 2-(4-Chloro-2-methylphenoxy)-N'-[1-(2,4,6-trihydroxyphenyl)ethylidene]acetohydrazide] | completely inactive |  | 
17 | Cc1cc(Cl)ccc1OCC(=O)NN=Cc1ccc2ccccc2c1 [Compound 22, 2-(4-Chloro-2-methylphenoxy)-N'-[-2-naphthylmethylidene]acetohydrazide] | excellent activity | 22 ± 0.14 µM | 
18 | Cc1cc(Cl)ccc1OCC(=O)NN=Cc1cccc(O)c1 [Compound 18, 2-(4-Chloro-2-methylphenoxy)-N'-[(3-hydroxyphenyl)methylidene]acetohydrazide] | completely inactive |  | 
19 | Cc1cc(Cl)ccc1OCC(=O)NN=Cc1ccc(O)cc1 [Compound 20, 2-(4-Chloro-2-methylphenoxy)-N'-[(4-hydroxyphenyl)methylidene]acetohydrazide] | completely inactive |  | 
